Experimental data from US9878015B2, “Pharmaceutical compositions and methods for the treatment of metastatic cancer” (IMMUNE SYSTEM KEY LTD., priority 2013, dated 2018).
Entries after “also recorded” stand apart in the source; their conditions may differ. Where no end group is shown, it is not given here.

Assays:
[1] = tested on: soluble ST2 (sST2) secreted by human adenocarcinoma pancreatic cancer cells; experiment: Soluble ST2 (sST2) ELISA assay, pancreatic cancer cells; format: cell-based; conditions: 1-50 μg/ml peptide; all tested cells; FIG. 2
Description: (§1) Soluble ST2 (sST2) ELISA Assay
(§2) Human adenocarcinoma pancreatic cancer cells and human breast cancer cells (MDA-MB-231) were grown until reaching 70-80% cell density in the flask and were detached from the flask using Trypsin EDTA as described above. Cells suspended in medium and Trypsin were then centrifuged and re-suspended in 2 ml fresh medium (as described for the BrdU incorporation assay above).
(§3) The cells were then fluidized and 3 ml medium were added to the cell suspension such that the cells were re-suspended in a total volume of 5 ml medium. The cells were then counted and diluted to a concentration of 50,000 cells/ml medium. Cells at 2 ml per plate were placed in each well of a 6 well plate such that each well contained 100,000 cells. The cells were incubated over-night in 37° C. in the incubator.
(§4) The supernatant was discarded and replaced by 1 ml RPMI medium containing 2.5% FBS. The cells were then incubated for 24 or 48 hours in 37° C. in the presence of the Nerofe peptide at the final concentrations of 1, 10, 25 and 50 μg/ml. […]
(§5) Detecting of sST2 was performed by diluted anti-sST2 Affinity purified antibody (Genmed, project ID 35622 B-Form) 1:100 in diluent (0.05% TW-20, 0.1% BSA in PBS), where 100 μl of the detection antibody was loaded on each well. […] Plate absorbance was performed in a microplate reader at O.D. of 450/590 nm.

[2] = tested on: adenocarcinoma pancreatic cancer cells, cell line 2; experiment: Radius cell migration assay, cell line 2; format: cell-based, human; conditions: cell line 2, Nerofe 10 μg/ml
Description: (§6) Cell Migration Assay of Human Cancer Cell
as §2, with “cells” for “cells and human breast cancer cells (MDA-MB-231)”, “and” for “and were”, “centrifuged 10 minutes at 300 g (4° C.)” for “centrifuged”
(§7) The cells were then fluidized and 3 ml medium were added such that the cells were suspended in a volume of 5 ml medium and subsequently counted and diluted to a concentration of 150,000 or 300,000 cells/ml medium.
(§8) Alternatively, Dulbecco's modification of Eagle's medium (DMEM, Biological Industries cat no. 01-055-1A) supplemented with 50 ml FBS (Biological industries cat no. 04-121-1A), 5 ml Hepes 1M (Biological industries cat no. 03-025-1C), 0.5 ml Amphotericin B 2500 μg/ml (Biological industries cat no. 03-029-1) and 5 ml Gentamycin sulfate 50 mg/ml (Biological industries cat no. 03-035-1) was used for cell culturing and re-suspension and the cells were re-suspended to a final concentration of 100,000 cells/ml medium.
(§9) A radius 96-well Cell Migration Assay plate (Cell Biolabs Inc. cat no. CBA-126) was prepared according to the manufacturer's protocol and each well was loaded with 100 μl cells such that each well contained 10,000, 15,000 or 30,000 cells. […]

[3] = tested on: soluble ST2 (sST2) in human breast cancer cells (MDA-MB-231); experiment: Soluble ST2 (sST2) ELISA assay, breast cancer cells; format: cell-based; conditions: MDA-MB-231, similar assay conditions, data not shown
Description: as §1, §2, §3, §4, §5

[4] = tested on: human adenocarcinoma pancreatic cancer cells; experiment: Bromodeoxyuridine (BrdU) incorporation assay (cell proliferation); format: cell-based; conditions: 1, 10, 25 and 50 μg/ml peptide vs control; no correlation with concentration
Description: Bromodeoxyuridine (BrdU) Incorporation Assay
Human adenocarcinoma pancreatic cancer cells and human breast cancer cells were grown until reaching 70-80% density in the flask and detached from the flask using Trypsin EDTA as described above (the above protocol for cell culturing was used until the step of adding 10 ml medium to the Trypsin-treated cells). The cells suspended in medium and Trypsin were then transferred into a 50 ml conical tube and centrifuged at 300 g (10 min, 4° C.). The supernatant was then discarded and the cell pellet was re-suspended in fresh medium (2 ml medium prepared as described above).
The cells were then fluidized and additional 3 ml medium were added to the cell suspension such that the cells were re-suspended in a total volume of 5 ml medium. The cells were then counted and diluted to a concentration of 20,000 cells/ml medium. Next, the cells were placed in a 96 well plate (Nunc cat no. 167008), placing 100 μl cell suspension per well, such that each well contained 2000 cells. The cells were then incubated over-night in 37° C. in the incubator.
The concentrated Nerofe peptide was suspended in a total volume of 100 μl medium and added to the assayed cells in the 96-well plate to a final concentration of 1, 10, 25 and 50 μg/ml. Control (background) assays were performed in the absence of the peptide, namely, 100 μl medium was added to control cells. […]

[5] = tested on: human adenocarcinoma pancreatic cancer cells; experiment: Cell migration assay after 48 hours pre-incubation with peptide; format: cell-based; conditions: 25 μg/ml peptide for 48 hours before assay; 27 hours vs 1 hour; FIG. 3, FIG. 4
Description: as §2, with “cells” for “cells and human breast cancer cells (MDA-MB-231)”, “and” for “and were”, “centrifuged 10 minutes at 300 g (4° C.)” for “centrifuged”
as §8
Alternatively, the supernatant was discarded and replaced by 200 μl DMEM containing 2.5% 1-BS and the required treatment, namely control (without Nerofe), 10, 25 or 50 μg/ml Nerofe. The cells were then incubated at 37° C. for 48 hours in an incubator.
When the cells reached 70-80% density, the supernatant was discarded and the gel was removed from the center of the well, without affecting the attachment of cells as described in the manufacturer's protocol. […]

[6] = tested on: vascular endothelial growth factor (VEGF); experiment: Clinical study: serum level of VEGF in cancer patients (ELISA); format: in vivo, human
Description: Therefore a clinical study that follows the serum levels of VEGF was conducted in cancer patients that were administered with the peptide Nerofe. Patients participating in the study were diagnosed with various cancer types, namely colon, colorectal, spindle cell neoplasm, pancreas, small intestine, non small cell lung carcinoma, hepatic carcinoma, colon adenocarcinoma and rectal adenocarcinoma, as summarized in Table 3 below.
Patients were included in at least one of Cohort 1, Cohort 2, Cohort 3 and Cohort 4 and received doses of […] (about 0.16, 0.32, 0.64 or 1.28 mg/kg body weight) of the peptide Nerofe, respectively, at the indicated time points.
Serum levels of VEGF were measured in blood samples obtained form these patients using an Elisa kit for human VEFG (R&D systems) and the results are presented in FIG. 5 (for the patients of Cohort 1 and Cohort 2) and in FIG. 6 (for the patients of Cohort 3 and Cohort 4).

[7] = tested on: various cancer cells of hematopoietic origin; conditions: inhibitory effect defined as at least 40% inhibition vs control; cited from earlier work
[8] = tested on: tissue plasminogen activator (TPA) secreted by human adenocarcinoma pancreatic cancer cells; experiment: Tissue type plasminogen activator (TPA) human ELISA assay on cell supernatant; format: cell-based; conditions: 1-50 μg/ml peptide, 24 hours; cell line 1, 2 and 3; FIG. 1
Description: Tissue Type Plasminogen Activator (TPA) Human ELISA Assay
as §2, with “cells” for “cells and human breast cancer cells (MDA-MB-231)”, “70-80%” for “70-80% cell”, “assay,” for “assay”
The cells were then fluidized and 3 ml medium were added to the cell suspension such that the cells were re-suspended in a total volume of 5 ml medium. Cells were counted and diluted to a concentration of 50,000 cells/ml medium. Next, the cells were placed in each well of a 6 well plate (Nunc cat no. 140675), by placing 2 ml cells culture per well such that each well contains 100,000 cells. The cells were next incubated over-night at 37° C. in the incubator.
The supernatant was discarded and replaced by 1 ml RPMI medium containing 2.5% FBS. Cells were then incubated for 24 hours or 48 hours at 37° C. in the presence of the Nerofe peptide at the final concentrations of 1, 10, 25 and 50 μg/ml. […]
Next, a TPA ELISA assay was performed as follows: the supernatant was thawed and kept on ice, then diluted 1:15 with the TPA diluents provided with the kit (x1N, Abcam cat no. ab108914). The procedure was continued according to the manufacturer's protocol and ELISA plates were read at an optical density (O.D.) of 450/590.

[9] = tested on: adenocarcinoma pancreatic cancer cells, cell line 1; experiment: Radius cell migration assay, cell line 1; format: cell-based, human; conditions: cell line 1, Nerofe 10 μg/ml
Description: as §6
as §2, with “cells” for “cells and human breast cancer cells (MDA-MB-231)”, “and” for “and were”, “centrifuged 10 minutes at 300 g (4° C.)” for “centrifuged”
as §7, §8, §9

[10] = tested on: tumor; conditions: adult Balb/C mice model; cited from earlier work

Sequence | level of sST2 compared to cells not incubated with the peptide [1] | % inhibition of migration ([2]; 8 hours) [%] | % Migration after 8 hours ([2]; control = 100) [%] | decrease in the level of sST2 [3] | inhibition of BrdU incorporation [4] | migration of cells into cell-free area [5] | change of serum level of VEGF ([6]; cancer patients, Cohort 1 and Cohort 2, 6 or 12 mg/m^2, FIG. 5) | decrease of serum level of VEGF ([6]; cancer patients, Cohort 3 and Cohort 4, 24 or 48 mg/m^2, FIG. 6) | decrease of serum level of VEGF in single patients ([6]; patients 13 (small intestine) and 19 (rectal adenocarcinoma)) | cell proliferation [7] | level of secreted TPA compared to control cells [8] | % inhibition of migration ([9]; 8 hours) [%] | % Migration after 8 hours ([9]; control = 100) [%] | tumor size [10]
WWTFFLPSTLWERK [Nerofe, C-terminal 14 all D amino acid fragment of the full T101 peptide, …] | lower levels of sST2; also recorded: dose-dependent | 82 | 18 | about 80% | up to 26% | substantially inhibited | increase | 30-40% | particularly significant | inhibit cell proliferation | lower levels of secreted TPA | 30 | 70 | 
LHLWLSGEPVQSSGTKDMRSKSDSKRVSDKQLISKAVWWTFFLPSTLWERK (isolated synthetic peptide (fragment of T 101 peptide)) [T101 peptide, Full length thymus peptide, devoid of its N-terminal 33 amino acids; 51 amino acids long] |  |  |  |  |  |  |  |  |  |  |  |  |  | significantly reduce tumor size
